In patent US8226943B2, “Antibodies to notch receptors” (OncoMed Pharmaceuticals, Inc., priority 2008, dated 2012):

How the values were obtained:
T3 breast tumor cells = test: T3 breast tumor xenograft growth; format: in vivo, NOD/SCID mice
Procedure: In certain embodiments, NOD/SCID mice injected with 50,000 PE13 or T3 breast tumor cells were treated with anti-Notch2/3 antibody 59R1 or control antibody 1B7.11 two days following cell injections. Antibodies were dosed at 10 mg/kg twice week.
In a further experiment, anti-Notch2/3 antibodies were tested for an effect on breast tumor growth. NOD/SCID mice were injected with 50,000 PE13 or T3 breast tumor cells, and tumors were allowed to grow to a size of between 65 to 200 mm^3 after which mice were randomized (n=10 per experimental group), and antibodies administration begun. Animals were treated with 15 mg/kg of either control 1B7.11 antibodies or anti-Notch2/3 59R1 antibodies twice weekly. Tumor size was measured twice weekly, and tumor volume was calculated as described (see Michieli et al., 2004).

stroma of T1 tumors = test: Microarray gene expression in stroma of treated xenograft tumors, T1; format: in vivo, mice; settings: 59R1 vs control
B51 breast tumors = test: Limiting dilution assay of cancer stem cell frequency, B51 breast tumors; format: in vivo, NOD-SCID mice
Source text: Limiting dilution assays (LDAs) can be used to assess the effect of a Notch-binding agent on solid tumor cancer stem cells and on the tumorigenicity of a tumor comprising the cancer stem cells. The assays can be sued to determine the frequency of cancer stem cells in tumors from animals treated with the Notch-binding agent or other agent and to compare that frequency to the frequency of cancer stem cells in tumors from control animals.
An LDA was used to assess the effect on the tumorigenicity of the B51 breast tumors that were treated with the combination of control antibody (1B711) plus paclitaxel (Taxol) or treated with the combination of 59R1 and paclitaxel, as described above in Example 7. In addition, the effect of treatment of B51 breast tumors with the control antibody alone or 59R1 alone was also determined by LDA. The doses of antibodies and paclitaxel and the schedule of dosing for the control antibody group and the 59R1 group were the same as described in Example 7, above for the other two treatment groups. After three doses of antibodies and/or paclitaxel, tumors were harvested, processed and dissociated into single cells. The human tumor cells were isolated from the xenograft tumor cells by incubation with biotinylated mouse antibodies (α-mouse CD45-biotin1:200 dilution and rat α-mouse H2 Kd-biotin1:100 dilution, BioLegend, San Diego, Calif.) on ice for 30 min, followed by addition of streptavidin-labeled magnetic beads and removal of the mouse cells with the aid of a magnet. The human cells in the suspension were harvested and counted.
A serial titration of cells (30, 90, 270, and 810 cells) from each of the four treatment groups was injected in a 1:1 (v/v) mixture of FACS buffer and Matrigel into a new set of NOD-SCID mice (n=10/group). Tumors were allowed to grow for 72 days. The percentage of mice with detectable tumors was determined in all groups. The cancer stem cell frequency was then calculated using L-Calc™ software (StemCell Technologies Inc.; downloadable from www.stemcell.com/search/default.asp).

[1] = tested on: hDLL4-induced Notch2 signaling; test: Luciferase reporter assay, hDLL4-induced Notch2 signaling in Hela cells; format: cell-based, human; settings: antibody titrated from 40 μg/ml
Procedure: Luciferase reporter assays were used to assay the 59R1 antibody for its ability to block hDLL4-, hJAG1-, and hJAG2-induced Notch2 signaling.
Hela cells that stably overexpress human Notch2 were transiently transfected with firefly luciferase with a synthetic 8×CBS promoter (Ong et al., 2006, J. of Biological Chemistry, 281:5106-5119), pSPORT6 MAML-1, and Renilla luciferase-CMV as a transfection control. Cells were incubated with 100 ng of immobilized hDLL4 (R&D systems) with the indicated antibodies for 16 hours and then assayed using Dual-Glo (Promega) according to the manufacturer's instructions. Control antibody was at a concentration of 40 μg/ml. 59R1 IgG2 antibody was titrated, starting at 40 μg/ml, and then diluted by one-fourth. The gamma secretase inhibitor (GSI) dibenzazepine (DBZ) was used as a control at 1 μM.

[2] = tested on: breast tumor xenograft line OMP-B34; test: OMP-B34 breast tumor xenograft growth; format: in vivo, NOD/SCID mice; settings: established tumors, 15 mg/kg once a week
Procedure: The 59R1 IgG2 antibody was also tested in vivo in the breast tumor xenograft lines OMP-B34, OMP-B39, OMP-B44, PE13, and UM-T1, the pancreas tumor xenograft line OMP-PN8, and the colon tumor xenograft line OMP-C8. These tumor xenograft lines were established by adhering to procedures described in Al-Hajj et al., 2003, Proc. Natl. Acad. Sci. USA, 100:3983-3988. Female NOD/SCID immuno-compromised mice 7-10 weeks old were used for the establishment of the breast tumor xenografts and male NOD/SCID mice were used for the OMP-Pn8 and OMP-C8 tumor-models (Harlan, Indianapolis, Ind.). The 59R1 IgG2 antibody was also tested in vivo in a Colo-205 colon tumor xenograft model. Female immunodeficient bg/nu XID mice on a Swiss CD-1 background were used for the Colo-205 xenograft tumor model. In case of the breast cancer models, slow-releasing estrogen pellets (0.36 mg) had to be implanted. Mice were subcutaneously injected on the right flank with 50,000 (OMP-B34, OMP-B39, OMP-B44, PE13, and UM-T1) or 1×10^7 (Colo-205) viable cells, respectively, in a mixture of PBS (without magnesium or calcium) and Matrigel at a 1:1 ratio. […] Antibodies were administered weekly and tumors measured twice weekly. […] Tumor volume was calculated as described Al-Hajj et al. (2003). Data are expressed as the mean and the mean±S.E.M. Group means were compared using Student's two-tailed, unpaired t-test. […]

[3] = B51, combination of 59R1 and paclitaxel

Substance: 59R1: human IgG2 antibody binding Notch2 and Notch3; heavy and light chain SEQ ID NO:16 and 18; ATCC PTA-9547
- T3 tumor growth compared to control (T3 breast tumor cells; 10 mg/kg twice week, started two days following cell injections): significantly reduced
- T3 tumor growth compared to control (T3 breast tumor cells; established tumors, 15 mg/kg twice weekly): significantly reduced
- Fold 1416286_at (Rgs4) (stroma of T1 tumors): −1.13
- Fold 1417466_at (Rgs5) (stroma of T1 tumors): −1.99
- Fold 1417714_x_at (Hba-al/Hba-a2) (stroma of T1 tumors): 1.42
- Fold 1418829_a_at (Eno2) (stroma of T1 tumors): 1.29
- Fold 1419302_at (Heyl) (stroma of T1 tumors): −1.07
- Fold 1420872_at (Gucy1b3) (stroma of T1 tumors): −1.01
- Fold 1420941_at (Rgs5) (stroma of T1 tumors): −1.97
- Fold 1420942_s_at (Rgs5) (stroma of T1 tumors): −1.18
- Fold 1421964_at (Notch3) (stroma of T1 tumors): −1.01
- Fold 1422789_at (Aldh1a2) (stroma of T1 tumors): −2.16
- Fold 1428361_x_at (Hba-al/Hba-a2) (stroma of T1 tumors): 1.73
- Fold 1434141_at (Gucy1a3) (stroma of T1 tumors): 1.20
- Fold 1449280_at (Esm1) (stroma of T1 tumors): 1.18
- Fold 1449632_s_at (Fkbp10) (stroma of T1 tumors): 1.07
- Fold 1451501_a_at (Ghr) (stroma of T1 tumors): −1.12
- Fold 1452590_a_at (Plac9) (stroma of T1 tumors): 1.20
- Fold 1459713_s_at (Tmem16a) (stroma of T1 tumors): −2.14
- reduction of cancer stem cell frequency relative to the control (B51 breast tumors; B51, 59R1 alone): more than two-fold
- reduction of cancer stem cell frequency relative to treatment with 59R1 alone (B51 breast tumors; [3]): more than two-fold
- reduction of cancer stem cell frequency relative to treatment with paclitaxel alone (B51 breast tumors; [3]): about twelve-fold
- reduction of cancer stem cell frequency relative to treatment with the control antibody (B51 breast tumors; [3]): about 4.5 fold
- hDLL4-induced Notch2 reporter activity [1]: inhibit
- B34 breast cancer growth relative to control antibody [2]: inhibit breast cancer growth
